# Data from US5942494A, “Stimulation of gene expression and synthesis of heat shock protein 72/73 (HSP 70)” (The Trustees of Columbia University in the City of New York, priority 1996, dated 1999).
# Numbered stars: 1 amine (or outer) side, 2 acyl side, 3 side chain; on linkers, the order of the positions; unused ones are H or OH. Bridge positions count the residues as written; N and C are the ends. Square brackets hold non-standard residues; d marks the D form. Peptide text beside a SMILES is read from it. I, II: the chains in the order shown. * marks the point of attachment. Actinocin(9to1) = Cc1c2oc3c(C)ccc(C(=O)[*:1])c3nc-2c(C(=O)[*:2])c(N)c1=O; Sta = CC(C)C[C@H](N)[C@@H](O)CC(=O)O; NMeV = CN[C@H](C(=O)O)C(C)C; Isovaleryl = CC(C)CC(=O)*; Cbz = O=C(OCc1ccccc1)*; Sar = CNCC(=O)O
# Assays:
# Format in all cases: cell-based, human
# Hsp70 = Hsp70 levels by denaturing immunoprecipitation of [3H]-leucine radiolabeled HepG2 cells; conditions: for Induction of Hsp70 by protease inhibitors: HepG2, 4 hours pre-treatment, ALLN, ALLM 40 μg/ml, leupeptin, pepstatin A 50 μg/ml, E-64d 25 μg/ml, PMSF 1 mM, aprotinin 100 KIU/ml, Benz 1 mM, CIP 200 μM
# Experimental: The HepG2 cell culture conditions were maintained as previously described (Dixon, et al., 1991). The cells were seeded into collagen-pre-coated dishes or six-well tissue culture plates and grown in complete medium containing minimum essential medium (MEM) with 0.1 mM nonessential amino acids, 1.0 mM sodium pyruvate, penicillin/streptomycin, and 10% fetal bovine serum. Cells were fed fresh complete medium every 3 days and maintained in a 5% CO2 incubator. All experiments were performed by using exponentially growing cells at 90-95% confluency. For heat shock treatment, the dishes were sealed with Parafilm and immersed in a water bath at 42° C. for indicated durations of time. Cells were incubated with ALLN alone at indicated concentrations or combined with other chemicals at 37° C. Cells were also incubated with different protease inhibitors alone at indicated concentrations or combined with other chemicals at 37° C.
# (§1) HepG2 cells were preincubated for 4 hours in serum-free MEM and then radiolabeled with ^3 H-Leucine (150 μCi/ml) in a serum-free, leucine-free medium. Preincubation and labeling media each contained either 1.5% bovine serum albumin (BSA) alone, or BSA plus ALLN (40 μg/ml except as otherwise indicated), or BSA plus other protease inhibitors at concentrations indicated in the figure legends. At the indicated times, cells were removed from the 37° C. incubator and placed on ice, washed with cold phosphate-buffer saline (PBS) twice and lysed with lysis buffer containing 1% Triton X-100 (TX100), 1% deoxycholic acid (DOC) and 0.1% SDS in PBS containing proteinase inhibitors: 2 mM phenylmethylsulfonyl fluoride (PMSF); 2 μg/ml ALLN; 2 μg/ml leupeptin; and 2 μg/ml aprotinin. After a 30 min. incubation with lysis buffer at 4° C., the lysates were centrifuged at 14,000 g in a microcentrifuge for 5 min., and the supernatants were adjusted to 1% SDS concentration and boiled for 5 min. to denature the proteins. 1% TX100 was then added to dilute the lysates to a final concentration of 0.1% SDS. Cell lysates containing equal amounts of trichloroacetic acid (TCA)-insoluble radioactivity were used for immunoprecipitations by incubating with individual monoclonal antibody (1 μg/ml) for 2.5 hours at 4° C. Protein-A Sepharose 4B was added afterwards and the lysates incubated for another 1.5 hours at 4° C. to collect the immunocomplexes. After washing four times with 1×NET buffer (containing 0.5% TX100, 0.1% SDS), the immunocomplexes were mixed with sample buffer and boiled for 5 min. Following centrifugation, the supernatants were aliquoted for scintillation counting and for 3-15% gradient polyacrymide gel electrophoresis (SDS-PAGE) . The gels were later subjected to fluorography. All values are presented as the mean ± S.D. from three individual experiments except as otherwise indicated.
# Denaturing immunoprecipitation was chosen because Hsp70 is a major cytosolic chaperone protein and it is co-immunoprecipitated with a number of other proteins under non-denaturingconditions (Beckmann, et al., 1990; Zhou, et al., 1995).
# HepG2 cells = experiment: Total incorporation of radiolabel (TCA cpm) as indicator of cell toxicity, HepG2; conditions: HepG2, 4 hours; MG132 10 or 30 μM; lactacystin 10 μM
# Experimental: as §1
# hsp70 (hsp72) mRNA = experiment: Northern blot of hsp70 (hsp72) mRNA in HepG2 cells; conditions: with ALLN 40 μg/ml, 4 hours; actinomycin D 10 μg/ml; cycloheximide 50 μg/ml
# Experimental: HepG2 cells were treated with serum-free MEM containing either 1.5% BSA alone (Control, lane1), BSA plus 40 μg/ml of ALLN (ALLN, lane2), ALLN and 10 μg/ml of actinomycin D (A+AD, lane3), or ALLN and 50 μg/ml of cycloheximide (A+CXM, lane4). After 4 hours treatment at 37° C., cells were harvested. (B). HepG2 cells were treated with 40 μg/ml of ALLN in the serum-free MEM for up to 0 hour (lane1), 1 hour (lane2), 2 hours (lane3), and 3 hours (lane4) and then harvested without recovery. Or after treatment for 3 hours in the presence of ALLN as above, the ALLN containing medium were removed, cells were washed and fed fresh medium containing only BSA for recovery of up to 1 hour (lane5), 3 hours (lane6), 5 hours (lane7) or 7 hours (lane8). The total RNA was prepared, and equal amounts of the samples were loaded and run on a 1% formaldehyde-agarose gel, blotted onto a nylon membrane, and subsequently hybridized with specific synthetic oligonucleotide probes for hsp70 mRNA as described under Experimental Details. The position of 28S and 18S rRNA are shown for reference.
# Total RNA was prepared using the procedure of Chomczynski and Sacchi (Chomczynski, et al., 1987) and a commercially prepared reagent, TRISOLV™ (Biotecx Laboratories Inc., Tex.) . Equal amounts of tRNA samples (10 μg) were size-fractionated on a 1% agarose-formaldehyde gel according to the methods described (Maniatis, et al., 1982) and transferred to a piece of QIAGEN plus nylon membrane. To determine loading and transfer efficiency, RNA was stained with ethidium bromide before and after transfer. The membrane was baked for 30 min. at 80° C. in vacuo (a vacuum) followed by UV cross-linking. It was then incubated for 4 hours at 65° C. in a prehybridization mixture containing 10% dextran sulfate, 1% SDS, 1M sodium chloride, 50 mM Tris-HCl (pH 7.5) and 100 μg/ml denatured salmon sperm DNA. Hybridization was carried out for 18 hours at 65° C. in the same buffer with a ^32 P-labeled (1×10^6 cpm/ml) 40-mer oligonucleotide probe to the untranslated 5' region of a human hsp70 gene (Oncogene Science). […] The membrane was then washed four times with 2×SSC, 0.1% SDS at room temperature, one time at 65° C. for 30 min., and one time at room temperature again for 5 min., and finally rinsed with 2×SSC at room temperature. This membrane was air dried and exposed to X-ray film at -80° C. for 48 hours.
# Total RNA was isolated from HepG2 cells which had been incubated for 4 hours at 37° C. (FIG. 5A) with MEM containing BSA alone (Control, lane1), BSA plus 40 μg/ml of ALLN (ALLN, lane2), BSA plus ALLN and […] of actinomycin D (A+AD, lane3) or BSA plus ALLN and 50 μg/ml of cycloheximide (A+CXM, lane4). A radioprobe containing a unique sequence specific for the 5' untranslated region of hsp72 (inducible form) (Freeman et al., 1993) was used for Northern blot analysis.
# HSF1 = experiment: EGS cross-linking and Western blot of HSF1 oligomeric forms in HepG2 cells; conditions: cycloheximide 50 μg/ml with ALLN 40 μg/ml, 2 hours
# Experimental: FIGS. 6A-6B: ALLN affects the trimerization of HSF. HepG2 cells were treated with serum-free MEM containing 1.5% BSA for 2 hours at 37° C. without any additions (lane1), at 37 ° C. but containing 40μg/ml of ALLN in the medium (lane2), at 37° C. in a medium containing both ALLN and 50 μg/ml of cycloheximide (lane3) , at 42° C. alone (lane4), or at 42° C. plus cycloheximide in the medium (lane5). Cell lysates were prepared as described under Experimental Details. The lysates were either directly run on the SDS-PAGE (A) to show the steady-state protein levels of HSF1 or subjected to cross-linking with ethylene glycol bis sucrinimidylsuccinate (EGS) before running the gel (B) to show the oligomeric forms of HSF1. The proteins were then transfered to a nitrocellulose membrane and immunoblotted with anti-human HSF1 antibody. Arrows on the right side indicates the monomeric, dimeric or trimeric forms of HSF1, respectively. This experiment was repeated three times with identical results.
# For measurement of the steady-state HSF1 protein levels, whole cell extracts were prepared by lysing the cells directly with 2×SDS-sample buffer (Maniatis, et al., 1982). For chemical cross-linking experiments, whole-cell extracts were prepared as described (Mosser, et al., 1988). Briefly, the cold PBS-washed cell pellets were quickly and repeatedly frozen in liquid nitrogen. […]
compound,measurement,setting,value
"CC(=O)N[C@@H](CC(C)C)C(=O)N[C@@H](CC(C)C)C(=O)N[C@H](C=O)CCCNC(=N)N [Leupeptin, leupeptin]",Induction of Hsp70 by protease inhibitors,Hsp70,ineffective
"CC(C)C[C@@H](C=O)NC(=O)[C@H](CC(C)C)NC(=O)[C@H](CC(C)C)NC(=O)OCc1ccccc1 [MG132, Cbz-leucyl-leucyl-leucinal] (Cbz-Leu-Leu-Leu-aldehyde)",Toxicity to the cells (TCA-precipitable radioactivities),HepG2 cells,without obvious toxicity
same,Induction of Hsp70 levels by proteasome inhibitors,"Hsp70; HepG2, 4 hours, MG132 10 μM or 30 μM, lactacystin 10 μM, 30 min radiolabeling",induced Hsp70 levels dramatically
"O=S(=O)(F)Cc1ccccc1 [PMSF, phenylmethylsulfonyl fluoride]",Induction of Hsp70 by protease inhibitors,Hsp70,No induction
"Cc1c2oc3c(C)ccc(C(=O)N[C@@H]4C(=O)N[C@H](C(C)C)C(=O)N5CCC[C@H]5C(=O)N(C)CC(=O)N(C)[C@@H](C(C)C)C(=O)O[C@@H]4C)c3nc-2c(C(=O)N[C@@H]2C(=O)N[C@H](C(C)C)C(=O)N3CCC[C@H]3C(=O)N(C)CC(=O)N(C)[C@@H](C(C)C)C(=O)O[C@@H]2C)c(N)c1=O [actinomycin D] (I: T[dV]P[Sar][NMeV] / II: T[dV]P[Sar][NMeV]; ester I:1-I:C, II:1-II:C; linker I:N-II:N via Actinocin(9to1))",Effect of co-treatment on ALLN-induced hsp70 (hsp72) mRNA,hsp70 (hsp72) mRNA,abolished the effects of ALLN
C[C@@H]1C[C@@H]([C@H](O)CC2CC(=O)NC(=O)C2)C(=O)[C@@H](C)C1 [cycloheximide],Effect of co-treatment on ALLN-induced HSF1 trimerization,HSF1,abolished the effect of ALLN on HSF1 trimerization
same,Effect of co-treatment on ALLN-induced hsp70 (hsp72) mRNA,hsp70 (hsp72) mRNA,abolished
CC(C)CC(=O)N[C@H](C(=O)N[C@H](C(=O)N[C@@H](CC(C)C)[C@@H](O)CC(=O)N[C@@H](C)C(=O)N[C@@H](CC(C)C)[C@@H](O)CC(=O)O)C(C)C)C(C)C [pepstatin] (Isovaleryl-VV[Sta]A[Sta]-OH),Induction of Hsp70 by protease inhibitors,Hsp70,No induction
aprotinin,Induction of Hsp70 by protease inhibitors,Hsp70,No induction
